Reference: ChEMBL document CHEMBL1201861, “Genomics of Drug Sensitity in Cancer screening data, Wellcome Trust Sanger Institute”

How the values were obtained:
Test in all cases: cells
[1] = tested on: HuP-T4; format: functional, cell-based; conditions: Homo sapiens;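 also: cell viability assay measuring how much HuP-T4 cell growth is inhibited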
Description: SANGER: Inhibition of human HuP-T4 cell growth in a cell viability assay.

[2] = tested on: KYSE-410; format: functional, cell-based; conditions: Homo sapiens;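 also: growth inhibition of KYSE-410 cells, measured through a cell viability readout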
Description: SANGER: Inhibition of human KYSE-410 cell growth in a cell viability assay.

[3] = tested on: OE33; format: functional, cell-based; conditions: Homo sapiens;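 also: growth inhibition of human OE33 cells, measured by a cell viability assay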
Description: SANGER: Inhibition of human OE33 cell growth in a cell viability assay.

[4] = tested on: NCI-H1417; format: functional, cell-based, Homo sapiens; conditions: Homo sapiens, NCI-H1417;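 also: human NCI-H1417 cells, growth inhibition determined with a cell viability readout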
Description: SANGER: Inhibition of human NCI-H1417 cell growth in a cell viability assay.

[5] = tested on: MONO-MAC-6; format: functional, cell-based, Homo sapiens; conditions: Homo sapiens, MONO-MAC-6;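 also: cell viability assay measuring growth inhibition of human MONO-MAC-6 cells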
Description: SANGER: Inhibition of human MONO-MAC-6 cell growth in a cell viability assay.

[6] = tested on: Calu-3; format: functional, cell-based; conditions: Homo sapiens;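 also: growth inhibition of human Calu-3 cells, determined with a cell viability assay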
Description: SANGER: Inhibition of human Calu-3 cell growth in a cell viability assay.

[7] = tested on: CAL-27; format: functional, cell-based; conditions: Homo sapiens;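 also: Viability-based readout, IC50 reflecting inhibition of CAL-27 cell growth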
Description: SANGER: Inhibition of human CAL-27 cell growth in a cell viability assay.

[8] = tested on: U-698-M; format: functional, cell-based, Homo sapiens; conditions: Homo sapiens, U-698-M
Description: SANGER: Inhibition of human U-698-M cell growth in a cell viability assay.

[9] = tested on: SCLC-21H; format: functional, cell-based, Homo sapiens; conditions: Homo sapiens, SCLC-21H;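 also: growth inhibition of cultured human SCLC-21H cells, read out with a cell viability assay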
Description: SANGER: Inhibition of human SCLC-21H cell growth in a cell viability assay.

[10] = tested on: NCI-H2196; format: functional, cell-based, Homo sapiens; conditions: Homo sapiens, NCI-H2196; read-out: IC50;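 also: cell viability assay used as the readout of growth inhibition in NCI-H2196 cells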
Description: SANGER: Inhibition of human NCI-H2196 cell growth in a cell viability assay.

[11] = tested on: SF-295; format: functional, cell-based; conditions: Homo sapiens;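 also: growth inhibition of SF-295 cells, read out with a cell viability assay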
Description: SANGER: Inhibition of human SF295 cell growth in a cell viability assay.

[12] = tested on: MDA-MB-231; format: functional, cell-based; conditions: Homo sapiens
Description: SANGER: Inhibition of human MDA-MB-231 cell growth in a cell viability assay.

[13] = tested on: CP66-MEL; format: functional, cell-based; conditions: Homo sapiens;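 also: growth inhibition of CP66-MEL cells determined in a cell viability assay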
Description: SANGER: Inhibition of human CP66-MEL cell growth in a cell viability assay.

[14] = tested on: COLO-679; format: functional, cell-based; conditions: Homo sapiens
Description: SANGER: Inhibition of human COLO-679 cell growth in a cell viability assay.

[15] = tested on: COR-L105; format: functional, cell-based; conditions: Homo sapiens;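 also: cell growth inhibition determined with a viability assay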
Description: SANGER: Inhibition of human COR-L105 cell growth in a cell viability assay.

[16] = tested on: CAKI-1; format: functional, cell-based; conditions: Homo sapiens;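 also: growth inhibition of CAKI-1 cells, measured by a cell viability assay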
Description: SANGER: Inhibition of human CAKI-1 cell growth in a cell viability assay.

[17] = tested on: EVSA-T; format: functional, cell-based, Homo sapiens; conditions: Homo sapiens, EVSA-T;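 also: growth inhibition of EVSA-T cells, read out with a cell viability assay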
Description: SANGER: Inhibition of human EVSA-T cell growth in a cell viability assay.

[18] = tested on: NCI-H719; format: functional, cell-based, Homo sapiens; conditions: Homo sapiens, NCI-H719;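 also: growth inhibition of the cultured cell line, read out with a viability assay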
Description: SANGER: Inhibition of human NCI-H719 cell growth in a cell viability assay.

[19] = tested on: HO-1-N-1; format: functional, cell-based; conditions: Homo sapiens;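 also: growth inhibition of human HO-1-N-1 cells, read out with a cell viability assay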
Description: SANGER: Inhibition of human HO-1-N-1 cell growth in a cell viability assay.

[20] = tested on: C3A; format: functional, cell-based; conditions: Homo sapiens;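 also: growth inhibition of C3A human cells, quantified with a cell viability readout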
Description: SANGER: Inhibition of human C3A cell growth in a cell viability assay.

[21] = tested on: NB12; format: functional, cell-based; conditions: Homo sapiens;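 also: growth inhibition of human NB12 cells, read out by a cell viability assay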
Description: SANGER: Inhibition of human NB12 cell growth in a cell viability assay.

[22] = tested on: RMG-I; format: functional, cell-based; conditions: Homo sapiens;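 also: growth inhibition of human RMG-I cells, read out with a cell viability assay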
Description: SANGER: Inhibition of human RMG-I cell growth in a cell viability assay.

[23] = tested on: BOKU; format: functional, cell-based; conditions: Homo sapiens;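 also: growth inhibition of the human BOKU cell line, read out by a cell viability assay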
Description: SANGER: Inhibition of human BOKU cell growth in a cell viability assay.

[24] = tested on: MC-CAR; format: functional, cell-based, Homo sapiens; conditions: Homo sapiens, MC-CAR;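 also: growth inhibition of the human MC-CAR cell line, read out by a cell viability assay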
Description: SANGER: Inhibition of human MC-CAR cell growth in a cell viability assay.

[25] = tested on: NCI-H889; format: functional, cell-based, Homo sapiens; conditions: Homo sapiens, NCI-H889;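 also: cell growth inhibition of the cell line, read out with a viability assay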
Description: SANGER: Inhibition of human NCI-H889 cell growth in a cell viability assay.

[26] = tested on: HCC1937; format: functional, cell-based; conditions: Homo sapiens;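 also: growth inhibition measured with a cell viability read-out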
Description: SANGER: Inhibition of human HCC1937 cell growth in a cell viability assay.

[27] = tested on: ASPC1; format: functional, cell-based; conditions: Homo sapiens;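 also: growth inhibition of AsPC-1 cells, read out with a cell viability assay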
Description: SANGER: Inhibition of human AsPC-1 cell growth in a cell viability assay.

[28] = tested on: OVCAR-8; format: functional, cell-based; conditions: Homo sapiens;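 also: growth inhibition of human OVCAR-8 cells, read out by a cell viability assay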
Description: SANGER: Inhibition of human OVCAR-8 cell growth in a cell viability assay.

[29] = tested on: WM-115; format: functional, cell-based; conditions: Homo sapiens
Description: SANGER: Inhibition of human WM-115 cell growth in a cell viability assay.

[30] = tested on: EHEB; format: functional, cell-based; conditions: Homo sapiens;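 also: growth inhibition of human EHEB cells, read out with a cell viability assay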
Description: SANGER: Inhibition of human EHEB cell growth in a cell viability assay.

[31] = tested on: ARH-77; format: functional, cell-based, Homo sapiens; conditions: Homo sapiens, ARH-77;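 also: growth inhibition of ARH-77 cells, read out by a cell viability assay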
Description: SANGER: Inhibition of human ARH-77 cell growth in a cell viability assay.

[32] = tested on: PA-1; format: functional, cell-based; conditions: Homo sapiens;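 also: IC50 for suppression of PA-1 cell proliferation, determined with a cell viability read-out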
Description: SANGER: Inhibition of human PA-1 cell growth in a cell viability assay.

[33] = tested on: T47D; format: functional, cell-based; conditions: Homo sapiens;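 also: growth inhibition of human T47D cells, measured with a cell viability assay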
Description: SANGER: Inhibition of human T47D cell growth in a cell viability assay.

[34] = tested on: T-24; format: functional, cell-based; conditions: Homo sapiens;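 also: growth inhibition of T-24 cells, read out with a cell viability assay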
Description: SANGER: Inhibition of human T-24 cell growth in a cell viability assay.

[35] = tested on: KYSE-520 cell line; format: functional, cell-based; conditions: Homo sapiens;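 also: growth inhibition of human KYSE-520 cells, read out with a viability assay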
Description: SANGER: Inhibition of human KYSE-520 cell growth in a cell viability assay.

[36] = tested on: UACC-812; format: functional, cell-based; conditions: Homo sapiens
Description: SANGER: Inhibition of human UACC-812 cell growth in a cell viability assay.

[37] = tested on: MC-IXC; format: functional, cell-based; conditions: Homo sapiens;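 also: growth inhibition of MC-IXC cells, read out with a cell viability assay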
Description: SANGER: Inhibition of human MC-IXC cell growth in a cell viability assay.

[38] = tested on: BCPAP; format: functional, cell-based; conditions: Homo sapiens;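 also: growth inhibition of BCPAP cells, read out in a cell viability assay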
Description: SANGER: Inhibition of human BCPAP cell growth in a cell viability assay.

[39] = tested on: M14; format: functional, cell-based; conditions: Homo sapiens;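 also: growth inhibition of M14 cells, read out with a cell viability assay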
Description: SANGER: Inhibition of human M14 cell growth in a cell viability assay.

[40] = tested on: BHT-101; format: functional, cell-based; conditions: Homo sapiens
Description: SANGER: Inhibition of human BHT-101 cell growth in a cell viability assay.

[41] = tested on: NCI-H1792; format: functional, cell-based; conditions: Homo sapiens;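 also: growth inhibition of human NCI-H1792 cells, read out as cell viability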
Description: SANGER: Inhibition of human NCI-H1792 cell growth in a cell viability assay.

[42] = tested on: A2058; format: functional, cell-based; conditions: Homo sapiens;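 also: reduction of A2058 cell growth, read out with a viability assay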
Description: SANGER: Inhibition of human A2058 cell growth in a cell viability assay.

[43] = tested on: NCI-H2405; format: functional, cell-based; conditions: Homo sapiens;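 also: growth inhibition of the human cell line, read out with a cell viability assay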
Description: SANGER: Inhibition of human NCI-H2405 cell growth in a cell viability assay.

[44] = tested on: 8305C; format: functional, cell-based; conditions: Homo sapiens
Description: SANGER: Inhibition of human 8305C cell growth in a cell viability assay.

[45] = tested on: NCI-H345; format: functional, cell-based, Homo sapiens; conditions: Homo sapiens, NCI-H345;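 also: growth inhibition of NCI-H345 cells measured with a cell viability assay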
Description: SANGER: Inhibition of human NCI-H345 cell growth in a cell viability assay.

[46] = tested on: RT-112; format: functional, cell-based; conditions: Homo sapiens
Description: SANGER: Inhibition of human RT-112 cell growth in a cell viability assay.

[47] = tested on: NALM-6; format: functional, cell-based, Homo sapiens; conditions: Homo sapiens, NALM-6;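 also: growth inhibition of NALM-6 cells, read out with a cell viability assay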
Description: SANGER: Inhibition of human NALM-6 cell growth in a cell viability assay.

[48] = tested on: DU-145; format: functional, cell-based; conditions: Homo sapiens
Description: SANGER: Inhibition of human DU-145 cell growth in a cell viability assay.

[49] = tested on: A-427; format: functional, cell-based; conditions: Homo sapiens;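 also: growth inhibition of human A-427 cells, read out by a cell viability assay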
Description: SANGER: Inhibition of human A427 cell growth in a cell viability assay.

[50] = tested on: PFSK-1; format: functional, cell-based; conditions: Homo sapiens;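 also: cell viability assay measuring how strongly compounds suppress growth of human PFSK-1 cells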
Description: SANGER: Inhibition of human PFSK-1 cell growth in a cell viability assay.

[51] = tested on: OAW-42; format: functional, cell-based; conditions: Homo sapiens;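 also: growth inhibition of OAW-42 cells, read out with a cell viability assay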
Description: SANGER: Inhibition of human OAW-42 cell growth in a cell viability assay.

[52] = tested on: PANC-03-27; format: functional, cell-based; conditions: Homo sapiens
Description: SANGER: Inhibition of human PANC-03-27 cell growth in a cell viability assay.

[53] = tested on: COLO-741; format: functional, cell-based; conditions: Homo sapiens
Description: SANGER: Inhibition of human COLO-741 cell growth in a cell viability assay.

[54] = tested on: MDA-MB-175-VII; format: functional, cell-based; conditions: Homo sapiens
[55] = tested on: MKN-7; format: functional, cell-based; conditions: Homo sapiens;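 also: growth inhibition of MKN-7 cells, read out with a cell viability assay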
Description: SANGER: Inhibition of human MKN7 cell growth in a cell viability assay.

[56] = tested on: SNU-449; format: functional, cell-based; conditions: Homo sapiens
Description: SANGER: Inhibition of human SNU-449 cell growth in a cell viability assay.

[57] = tested on: Raji; format: functional, cell-based, Homo sapiens; conditions: Homo sapiens, Raji;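 also: cell viability assay measuring inhibition of Raji cell growth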
Description: SANGER: Inhibition of human Raji cell growth in a cell viability assay.

[58] = tested on: CAL-62; format: functional, cell-based; conditions: Homo sapiens;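 also: growth inhibition of CAL-62 cells, read out with a cell viability assay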
Description: SANGER: Inhibition of human CAL-62 cell growth in a cell viability assay.

[59] = tested on: HCT-116; format: functional, cell-based; conditions: Homo sapiens
Description: SANGER: Inhibition of human HCT-116 cell growth in a cell viability assay.

`COC(=O)[C@H](CCSC)NC(=O)c1ccc(NC[C@@H](N)CS)cc1-c1ccccc1` was tested, and the IC50 [1] was over 1.02 µM, the IC50 [2] was over 1.02 µM and the IC50 [3] was over 1.02 µM. For the same compound, the IC50 [4] was over 1.02 µM, the IC50 [5] was over 1.02 µM and the IC50 [6] was over 1.02 µM. The IC50 [7] was over 1.02 µM, the IC50 [8] was over 1.02 µM and the IC50 [9] was over 1.02 µM. It also gave an IC50 [10] of over 1.02 µM, an IC50 [11] of over 1.02 µM and an IC50 [12] of over 1.02 µM. For the same compound, the IC50 [13] was over 1.02 µM, the IC50 [14] was over 1.02 µM and the IC50 [15] was over 1.02 µM. For the same compound, the IC50 [16] was over 1.02 µM, the IC50 [17] was over 1.02 µM and the IC50 [18] was over 1.02 µM. For the same compound, the IC50 [19] was over 1.02 µM, the IC50 [20] was over 1.02 µM and the IC50 [21] was over 1.02 µM. For the same compound, the IC50 [22] was over 1.02 µM, the IC50 [23] was over 1.02 µM and the IC50 [24] was over 1.02 µM. It also gave an IC50 [25] of over 1.02 µM, an IC50 [26] of over 1.02 µM and an IC50 [27] of over 1.02 µM. For the same compound, the IC50 [28] was over 1.02 µM, the IC50 [29] was over 1.02 µM and the IC50 [30] was over 1.02 µM. For the same compound, the IC50 [31] was over 1.02 µM, the IC50 [32] was over 1.02 µM and the IC50 [33] was over 1.02 µM. For the same compound, the IC50 [34] was over 1.02 µM, the IC50 [35] was over 1.02 µM and the IC50 [36] was over 1.02 µM. For the same compound, the IC50 [37] was over 1.02 µM, the IC50 [38] was over 1.02 µM and the IC50 [39] was over 1.02 µM. The IC50 [40] was over 1.02 µM, the IC50 [41] was over 1.02 µM and the IC50 [42] was over 1.02 µM. For the same compound, the IC50 [43] was over 1.02 µM, the IC50 [44] was over 1.02 µM and the IC50 [45] was over 1.02 µM. It also gave an IC50 [46] of over 1.02 µM, an IC50 [47] of over 1.02 µM and an IC50 [48] of over 1.02 µM. It also gave an IC50 [49] of over 1.02 µM, an IC50 [50] of over 1.02 µM and an IC50 [51] of over 1.02 µM. It also gave an IC50 [52] of over 1.02 µM, an IC50 [53] of over 1.02 µM and an IC50 [54] of over 1.02 µM. For the same compound, the IC50 [55] was over 1.02 µM, the IC50 [56] was over 1.02 µM and the IC50 [57] was over 1.02 µM. It also gave an IC50 [58] of over 1.02 µM and an IC50 [59] of over 1.02 µM.

With `Cc1ccc(C(=O)Nc2ccc(CN3CCN(C)CC3)c(C(F)(F)F)c2)cc1C#Cc1cnc2cccnn12` [PONATINIB] the IC50 [1] was over 0.512 µM, the IC50 [2] was over 0.512 µM and the IC50 [3] was over 0.512 µM. It also gave an IC50 [4] of over 0.512 µM, an IC50 [5] of 0.00837 µM and an IC50 [6] of over 0.512 µM. It also gave an IC50 [7] of over 0.512 µM, an IC50 [8] of over 0.512 µM and an IC50 [9] of over 0.512 µM. It also gave an IC50 [10] of over 0.512 µM, an IC50 [11] of over 0.512 µM and an IC50 [13] of over 0.512 µM. For the same compound, the IC50 [14] was over 0.512 µM, the IC50 [15] was over 0.512 µM and the IC50 [16] was 0.217 µM. The IC50 [17] was over 0.512 µM, the IC50 [18] was 0.0789 µM and the IC50 [19] was over 0.512 µM. For the same compound, the IC50 [20] was over 0.512 µM, the IC50 [21] was over 0.512 µM and the IC50 [22] was over 0.512 µM. It also gave an IC50 [23] of over 0.512 µM, an IC50 [24] of over 0.512 µM and an IC50 [25] of over 0.512 µM. For the same compound, the IC50 [26] was over 0.512 µM, the IC50 [27] was over 0.512 µM and the IC50 [28] was over 0.512 µM. It also gave an IC50 [29] of over 0.512 µM, an IC50 [30] of over 0.512 µM and an IC50 [31] of over 0.512 µM. For the same compound, the IC50 [32] was over 0.512 µM, the IC50 [33] was over 0.512 µM and the IC50 [34] was over 0.512 µM. For the same compound, the IC50 [35] was over 0.512 µM, the IC50 [36] was over 0.512 µM and the IC50 [37] was over 0.512 µM. It also gave an IC50 [38] of 0.36 µM, an IC50 [39] of over 0.512 µM and an IC50 [40] of over 0.512 µM. It also gave an IC50 [41] of over 0.512 µM, an IC50 [42] of over 0.512 µM and an IC50 [43] of over 0.512 µM. The IC50 [44] was 0.398 µM, the IC50 [45] was over 0.512 µM and the IC50 [46] was 0.238 µM. For the same compound, the IC50 [47] was 0.255 µM, the IC50 [48] was over 0.512 µM and the IC50 [49] was 0.273 µM. The IC50 [50] was over 0.512 µM, the IC50 [51] was over 0.512 µM and the IC50 [52] was over 0.512 µM. It also gave an IC50 [53] of over 0.512 µM, an IC50 [54] of over 0.512 µM and an IC50 [55] of over 0.512 µM. The IC50 [56] was 0.3 µM, the IC50 [57] was over 0.512 µM and the IC50 [58] was over 0.512 µM. The IC50 [59] was 0.211 µM.
